pIC50: −log10 of the molar value.
Assays:
[1] = molecular target: T1, SGK1 (Homo sapiens, UniProt O00141); test: Cell assay: P-NDRG1 level in HeLa cells (western blot), intracellular SGK1 inhibition; format: cell-based; parameters: endogenous in cells; host or cells: HeLa; conditions: decrease of NDRG1 phosphorylation, 24 hrs incubation
T1 sequence (O00141 1-431): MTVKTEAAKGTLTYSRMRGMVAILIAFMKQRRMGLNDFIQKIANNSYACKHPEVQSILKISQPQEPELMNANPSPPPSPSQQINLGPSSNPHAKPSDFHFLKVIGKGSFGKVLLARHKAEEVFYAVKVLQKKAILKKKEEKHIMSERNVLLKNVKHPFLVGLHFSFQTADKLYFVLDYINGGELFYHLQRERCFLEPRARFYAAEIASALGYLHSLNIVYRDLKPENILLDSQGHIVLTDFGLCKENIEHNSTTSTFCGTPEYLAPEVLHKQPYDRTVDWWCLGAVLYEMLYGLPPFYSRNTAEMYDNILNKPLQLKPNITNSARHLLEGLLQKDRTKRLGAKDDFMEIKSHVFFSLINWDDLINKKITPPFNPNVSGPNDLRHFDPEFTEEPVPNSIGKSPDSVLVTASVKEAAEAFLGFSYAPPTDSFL
Protocol: HeLa cells are plated out with a density of 10−20×10^3 cells/cm^2 in 6-well MTPs (Costar Corning, #3506) in DMEM medium, supplemented with 10% foetal calf serum (FCS), 2 mM glutamine and 1 mM sodium pyruvate. After 24 hrs. at 37° C. and with 5% CO2 in a cell incubator, each well is furthermore supplemented with 25 μl of a 100× DMSO solution of the compound; this solution is diluted 100-fold in the supernatant of the cell culture, which results in the expected SGK1 inhibitor concentration at a 1% DMSO concentration. The cells are incubated under the same conditions for a further 24 hrs.
The supernatants are subsequently removed (by suction), and the cells are washed once with 1 ml/well of ice-cold phosphate-buffered saline solution (PBS). 250 μl of the ice-cold lysis buffer (50 mM tris/HCl, 1 mM EDTA, 1 mM EGTA, 0.5 mM activated Na3VO4, 10 mM glycerophosphate, 50 mM NaF, 5 mM Na pyrophosphate, 1% Triton X100, 1 mM DTT, 0.1 mM PMSF and 1 μM microcystine and in each case 1 μg/ml of aprotinin, pepstatin or leupeptin) are added to each well. The cells are scraped down from the base of the well, and the cell suspension is sucked up several times with an Eppendorf pipette; the cells are thereby lysed and homogenised. […] The binding of the primary antibody was determined using antisheep IG antibody conjugated to […] peroxidase (1:5000 dilution, Calbiochem), followed by amplified chemiluminescence (SuperSignal West Dura Extended Duration, Pierce). […] The NDRG1 levels are determined after stripping of the nitrocellulose membranes using Restore™ western blot stripping buffer and the Pierce method.
On use of the P-NDRG1 antiserum, a decrease in the phosphorylation level of the NDRG1 protein can easily be detected. The decrease in the intensity of the bands in the western blot on use of the P-NDRG1 antiserum is determined, plotted against the cell culture medium concentration of the SGK1 inhibitor in a semi-logarithmic diagram and used for assessment of the intracellular inhibitor efficacy ([…]) of the SGK1 inhibitor. […]

[2] = molecular target: T1, SGK1; test: SGK1 protein kinase inhibition (enzyme), filter binding method; format: biochemical
Text: Other assays are known from the literature and could readily be performed by the person skilled in the art (see, for example, Dhanabal et al., Cancer Res. 59:189-197; Xin et al., J. Biol. Chem. 274:9116-9121; Sheu et al., Anticancer Res. 18:4435-4441; Ausprunk et al., Dev. Biol. 38:237-248; Gimbrone et al., J. Natl. Cancer Inst. 52:413-427; Nicosia et al., In Vitro 18:538-549). The inhibition of SGK1 protein kinase can be determined in the filter binding method.

CCc1c(C(=O)NNC(=O)Cc2cc(F)c(F)c(OC)c2)ccc(O)c1C [Compound 1, N′-[2-(3,4-difluoro-5-methoxyphenyl)acetyl]-2-ethyl-4-hydroxy-3-methyl-benzohydrazide]
melting point: 217 °C
pIC50 [1]: > 6.30
pIC50 [2]: > 8.00

CCc1c(C(=O)NNC(=O)Cc2cc(F)c(F)cc2OC)ccc(O)c1C [Compound 2, N′-[2-(3,4-Difluoro-6-methoxyphenyl)acetyl]-2-ethyl-4-hydroxy-3-methyl-benzohydrazide]
melting point: 220.7 °C
pIC50 [1]: < 6.30
pIC50 [2]: < 8.00

CCc1c(C(=O)NNC(=O)Cc2ccc(F)c(F)c2)ccc(O)c1C [Compound 3, N′-[2-(3,4-Difluorophenyl)acetyl]-2-ethyl-4-hydroxy-3-methylbenzohydrazide]
pIC50 [1]: < 6.30
pIC50 [2]: < 8.00
